[invAb] = inverted abasic unit; m = 2'-O-methyl; r = 2'-OH (RNA); f = 2'-fluoro
Tested on: ICAM-1 mRNA
Assay: ICAM-1 mRNA knock-down in transfected Calu-1 cells (Taqman RT-PCR)
Assay type: cell-based, human
Conditions: Calu-1 cells, 10 nM siNA, 24 hrs post-transfection, mean ± S.D., relative to non-targeting control
Procedure: Calu-1 (human; ATCC cat# HTB-54): Cells were cultured at 37° C. in the presence of 5% CO2 and grown in McCoy's 5a medium supplemented with fetal bovine serum at a final concentration of 10% and 100 μg/mL of streptomycin and 100 U/mL penicillin.
All transfections were performed using RNAiMax (Invitrogen Cat# 13778-150) as per the manufacturer's instructions.
Calu-1 cells were plated in all wells of a tissue-culture treated, 96-well plate at final counts of 5,000 cells/well in 100 μL of appropriate culture media. Cells were cultured for 24 hours after plating at 37° C. in the presence of 5% CO2.
After 24 hours, complexes containing siNA and RNAiMax were created as follows. A solution of RNAiMax diluted 33-fold in OPTI-MEM was prepared. In parallel, solutions of the siNAs for testing were prepared to a final concentration of 120 nM in OPTI-MEM. After incubation of RNAiMax/OPTI-MEM solution at room temperature for 5 min, an equal volume of the siNA solution and the RNAiMax solution were added together for each of the siNAs. […] This solution was incubated at room temperature for 20 minutes. After incubation, 20 uL of the solution was added to each of the relevant wells. The final concentration of siNA in each well was 10 nM and the final volume of RNAiMax in each well was 0.3 uL.
The time of incubation with the RNAiMax-siNA complexes was 24 hours, unless otherwise indicated. There was no change in media between the transfection and harvesting of the cells unless otherwise indicated.
Dose response curves were carried out in a similar fashion in 96-well plates, while maintaining a constant amount of RNAiMax in each transfection.
RNA was extracted from a 96-well plate using the TaqMan® Gene Expression Cells-to-CT™ Kit (Cat# 4399002) with a modified protocol. Briefly, a 60 uL (1 plate) or 110 uL (2 plates) of the Lysis Solution with DNase I was dispensed into each well of the Lysis Buffer Plate (twin.tec full skirt plate). The lysis buffer and stop plates were stored at 4° C. until the cells were washed.
The plate was spun at 1100 rpm for 5 minutes. The culture medium was aspirated and discarded from the wells of the culture plate. The lysis was performed automatically using a BioMek FX instrument and method. After the Biomek method was completed, the lysis plate was incubated for 2 min. at room temperature. The lysis plate can be stored for 2 hours at 4° C., or at −20° C. or −80° C. for two months.
Each well of the reverse transcription plate required 10 uL of 2× reverse transcriptase Buffer, 1 uL of 20× reverse transcription enzyme and 2 uL of nuclease-free water. The reverse transcription master mix was prepared by mixing 2× reverse transcription buffer, 20× reverse transcription enzyme mix, and nuclease-free water. 13 uL of the reverse transcription master mix was dispensed into each well of the reverse transcription plate (semi-skirted). A separate reverse transcription plate was prepared for each cell plate. The plate was loaded onto a Biomek NX or Biomek FX Dual-96 and the Biomek method was run. The program is programmed to automatically added 7 uL of lysate from the cell lysis procedure described above into each well of the reverse transcription plate. The plate is sealed and spun on a centrifuge (1000 rpm for 30 seconds) to settle the contents to the bottom of the reverse transcription plate. The plate is placed in a thermocycler at 37° C. for 60 min, 95° C. for 5 min, and 4° C. until the plate is removed from the thermocycler. Upon removal, if not used immediately, the plate was frozen at −20° C.
A series of probes and primers were used to detect the various mRNA transcripts of the genes of ICAM-1 and ICAM-2 in human cell lines (see Table 2). All the Taqman probes and primers for the experiments here-in described were supplied as pre-validated sets by Applied Biosystems, Inc., (see Table 2). The assays were performed on an ABI 7900 instrument, according to the manufacturer's instructions. […]

Question: “48704-DC: siNA duplex, ICAM-1 target site 395 (m); sense B cGuGuAuucGuuuccGGAG TTB; antisense CUCcGGAAAcGAAuAcAcGUU (sense CGUGUAUUCGUUUCCGGAGTT; antisense CUCCGGAAACGAAUACACGUU; sense: DNA at AGT, 2'-fluoro at CU, [invAb] at 5' end, 3' end, backbone not given here; antisense: sugars from the 5' end rrrfmmmmmfmmmfmfmfmmm, backbone not given here)” was tested. Which “% KD Human” value did it give?
Answer: 33 ± 22%

Question: With “48705-DC: siNA duplex, ICAM-1 target site 987 (m); sense B AGGAccuuAAcAGucuAcA TTB; antisense UGUAGAcuGuuAAGGuccuUU (sense AGGACCUUAACAGUCUACATT; antisense UGUAGACUGUUAAGGUCCUUU; sense: DNA at AGT, 2'-fluoro at CU, [invAb] at 5' end, 3' end, backbone not given here; antisense: sugars from the 5' end rrrmmmffmffmmmmffffmm, backbone not given here)” as the substance, how does the “% KD Human” value read?
Answer: 5 ± 51%

Question: “48706-DC: siNA duplex, ICAM-1 target site 250 (m); sense B GcuuGGAGAcucAGuGGcu TTB; antisense AGCcAcuGAGucuccAAGcUU (sense GCUUGGAGACUCAGUGGCUTT; antisense AGCCACUGAGUCUCCAAGCUU; sense: DNA at AGT, 2'-fluoro at CU, [invAb] at 5' end, 3' end, backbone not given here; antisense: sugars from the 5' end rrrfmffmmmfffffmmmfmm, backbone not given here)” was tested. Which “% KD Human” value did it give?
Answer: 23 ± 31%

Question: “48707-DC: siNA duplex, ICAM-1 target site 258 (m); sense B AcucAGuGGcuGAAAGAuG TTB; antisense CAUcuuucAGccAcuGAGuUU (sense ACUCAGUGGCUGAAAGAUGTT; antisense CAUCUUUCAGCCACUGAGUUU; sense: DNA at AGT, 2'-fluoro at CU, [invAb] at 5' end, 3' end, backbone not given here; antisense: sugars from the 5' end rrrfffffmmffmffmmmfmm, backbone not given here)” was tested. Which “% KD Human” value did it give?
Answer: 46 ± 17%

Question: “48708-DC: siNA duplex, ICAM-1 target site 1762 (m); sense B AcAGcAuuuAcccucAGcc TTB; antisense GGCuGAGGGuAAAuGcuGuUU (sense ACAGCAUUUACCCUCAGCCTT; antisense GGCUGAGGGUAAAUGCUGUUU; sense: DNA at AGT, 2'-fluoro at CU, [invAb] at 5' end, 3' end, backbone not given here; antisense: sugars from the 5' end rrrfmmmmmfmmmfmffmfmm, backbone not given here)” was tested. Which “% KD Human” value did it give?
Answer: 22 ± 9%

Question: How did the “% KD Human” value turn out when “48709-DC: siNA duplex, ICAM-1 target site 988 (m); sense B GGAccuuAAcAGucuAcAA TTB; antisense UUGuAGAcuGuuAAGGuccUU (sense GGACCUUAACAGUCUACAATT; antisense UUGUAGACUGUUAAGGUCCUU; sense: DNA at AGT, 2'-fluoro at CU, [invAb] at 5' end, 3' end, backbone not given here; antisense: sugars from the 5' end rrrfmmmffmffmmmmfffmm, backbone not given here)” was run?
Answer: 32 ± 14%

Question: With “48710-DC: siNA duplex, ICAM-1 target site 1574 (m); sense B ccucGuGAuGGcAGccucu TTB; antisense AGAGGcuGccAucAcGAGGUU (sense CCUCGUGAUGGCAGCCUCUTT; antisense AGAGGCUGCCAUCACGAGGUU; sense: DNA at AGT, 2'-fluoro at CU, [invAb] at 5' end, 3' end, backbone not given here; antisense: sugars from the 5' end rrrmmffmffmffmfmmmmmm, backbone not given here)” as the substance, how does the “% KD Human” value read?
Answer: 25 ± 5%

Question: How did the “% KD Human” value turn out when “48711-DC: siNA duplex, ICAM-1 target site 1577 (m); sense B cGuGAuGGcAGccucuuAu TTB; antisense AUAAGAGGcuGccAucAcGUU (sense CGUGAUGGCAGCCUCUUAUTT; antisense AUAAGAGGCUGCCAUCACGUU; sense: DNA at AGT, 2'-fluoro at CU, [invAb] at 5' end, 3' end, backbone not given here; antisense: sugars from the 5' end rrrmmmmmffmffmffmfmmm, backbone not given here)” was run?
Answer: 42 ± 13%

Question: With “48712-DC: siNA duplex, ICAM-1 target site 1579 (m); sense B uGAuGGcAGccucuuAuGu TTB; antisense ACAuAAGAGGcuGccAucAUU (sense UGAUGGCAGCCUCUUAUGUTT; antisense ACAUAAGAGGCUGCCAUCAUU; sense: DNA at AGT, 2'-fluoro at CU, [invAb] at 5' end, 3' end, backbone not given here; antisense: sugars from the 5' end rrrfmmmmmmffmffmffmmm, backbone not given here)” as the substance, how does the “% KD Human” value read?
Answer: 34 ± 27%

Question: How did the “% KD Human” value turn out when “48713-DC: siNA duplex, ICAM-1 target site 709 (m); sense B GGAcuuucGAucuuccAGc TTB; antisense GCUGGAAGAucGAAAGuccUU (sense GGACUUUCGAUCUUCCAGCTT; antisense GCUGGAAGAUCGAAAGUCCUU; sense: DNA at AGT, 2'-fluoro at CU, [invAb] at 5' end, 3' end, backbone not given here; antisense: sugars from the 5' end rrrmmmmmmffmmmmmfffmm, backbone not given here)” was run?
Answer: 36 ± 17%

Question: For “48714-DC: siNA duplex, ICAM-1 target site 1089 (m); sense B GGGucGAAGGuGGuucuuc TTB; antisense GAAGAAccAccuucGAcccUU (sense GGGUCGAAGGUGGUUCUUCTT; antisense GAAGAACCACCUUCGACCCUU; sense: DNA at AGT, 2'-fluoro at CU, [invAb] at 5' end, 3' end, backbone not given here; antisense: sugars from the 5' end rrrmmmffmfffffmmfffmm, backbone not given here)”, which “% KD Human” value is on record?
Answer: 48 ± 22%

Question: Which “% KD Human” value does the source give for “48715-DC: siNA duplex, ICAM-1 target site 1828 (m); sense B AcuuGuAGccucAGAGcuA TTB; antisense UAGcucuGAGGcuAcAAGuUU (sense ACUUGUAGCCUCAGAGCUATT; antisense UAGCUCUGAGGCUACAAGUUU; sense: DNA at AGT, 2'-fluoro at CU, [invAb] at 5' end, 3' end, backbone not given here; antisense: sugars from the 5' end rrrffffmmmmffmfmmmfmm, backbone not given here)” here?
Answer: 14 ± 12%

Question: “48716-DC: siNA duplex, ICAM-1 target site 368 (m); sense B GcAGucGuccGcuuccGcu TTB; antisense AGCGGAAGcGGAcGAcuGcUU (sense GCAGUCGUCCGCUUCCGCUTT; antisense AGCGGAAGCGGACGACUGCUU; sense: DNA at AGT, 2'-fluoro at CU, [invAb] at 5' end, 3' end, backbone not given here; antisense: sugars from the 5' end rrrmmmmmfmmmfmmffmfmm, backbone not given here)” was tested. Which “% KD Human” value did it give?
Answer: 22 ± 6%

Reference: patent US20120004282A1, “RNA Interference Mediated Inhibition of the Intercellular Adhesion Molecule 1 (ICAM-1) Gene Expression Using Short Interfering Nucleic Acid (siNA)” (Merck Sharp & Dohme Corp,, priority 2009, published 2012)
